One test addresses PI3 kinase isoform β (Homo sapiens, UniProt P42338). The experiment in a line: PI3 Kinase TR-FRET assay, isoform β. Format: biochemical. The settings on record: read-out: inhibition of PI3 kinase isoform β, IC50. On the procedure: The ability of compounds of the invention to inhibit PI3K activity was determined in a homogeneous TR-FRET assay using a PI3K assay kit (Millipore, USA; cat #33-016) according to manufacturer's instructions. PI3-Kinases (isoforms α, β, γ and δ) catalyze the phosphorylation of phosphatidylinositol, PIP2 to PIP3 in the presence of ATP and Mg^2+. The PIP3 product is detected by displacement of biotin-PIP3 from an energy transfer complex consisting of Europium labeled anti-GST monoclonal antibody, a GST-tagged PH domain, biotinylated PIP3 and Streptavidin-APC. Excitation of Europium in the complex results in an energy transfer to the APC and a fluorescence emission at 665 nm. The PIP3 product displaces biotin-PIP3 from the complex resulting in a loss of energy transfer and thus a decrease in signal.
To test for the ability of compounds to inhibit the activity of PI3Kα (wild-type), exemplary compounds of formula (I) were dissolved in DMSO and directly distributed into 384-well plates at a volume of 0.5 μL. 14.5 μL of P110/P85α/PIP2 mixture in buffer (obtained from the Millipore kit) containing MgCl2 (40 mM) and DTT (5 mM) was added to compound wells and incubated for 60 min at room temperature. P110/P85α was expressed in SF9 insect cells and purified nickel column extraction. Five ng of wild-type P110/P85α was used in the assay. The kinase reaction was started by the addition of ATP. The assay concentrations of both PIP2 and ATP were 10 μM. The reaction mixture was incubated for 30 min at room temperature and was terminated by the addition of stop mix and detection mix. Fluorescence was measured at 615 and 665 nm upon excitation at 340 nm in a Victor™ V5 fluorometer (Perkin Elmer, USA). The fluorescence emission ratio at 665 to 615 nm, proportional to the kinase activity, was plotted against the compound concentration to generate dose-response curves and IC50 values were determined using GraphPad Prism® 5 software.
The activity of PI3 kinase isoforms β, γ and δ were assayed in a similar manner to the assay protocol described above for PI3Kα, by substituting the appropriate p110/p85 isoform for the p110α/p85α. Compounds of formula (I) caused inhibition of PI3 kinase isoforms β, γ and δ as determined by these assays. For example, the compounds of examples 3, 51, 54, 111, 113, 115, and 253 each caused inhibition of PI3 kinase isoform β with IC50 values <50 nM. The compounds of examples 104, 133, 146 and 152 each caused inhibition of PI3 kinase isoform β with IC50 values <500 nM. The compounds of examples 3, 51, 54, 104, 111, 113, 115, 133, 253, and 152 each caused inhibition of PI3 kinase isoform γ with IC50 values <500 nM. […] The compounds of examples 2, 3, 51, 54, 111, 113, and 253 each caused inhibition of PI3 kinase isoform […] with IC50 values >1 μM.
(In TR-FRET formats the signal depends on donor and acceptor labels being close together.)

For test [1], the system named is pS6RP(S235/236), PC3 cells. The experiment in a line: In-cell Western assay, pS6RP(S235/236) in PC3 cells. Format: cell-based, human. The note with it: Homo sapiens, PC-3, In-cell Western. Summed up: (§1)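 Overnight-seeded PC3 cells were treated 2 h with serially diluted compound, then fixed and immunostained with phospho-specific primary antibodies and Eu-labelled secondary. Time-resolved Eu signal read at 615 nm (ex 340 nm), normalised by Hoechst 33258 staining (ex 355/em 460 nm); IC50 from sigmoidal dose-response fit.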

Test [2] relates to pAKT(5473) (phosphorylated at serine 473), PC3 cells. Nature of the test: In-cell Western assay, pAKT(5473) in PC3 cells. Format: cell-based. The settings on record: Homo sapiens, PC-3, In-cell Western, read-out: pAkt-S473. In short, it runs like this:
as §1

In another test the target is T1, mTOR kinase (Homo sapiens, UniProt P42345).
T1 construct: purchased Millipore, USA
Nature of the test: mTOR kinase TR-FRET assay. It counts as biochemical. The note with it: read-out: mTO R. Summed up: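 Compounds preincubated 60 min with mTOR (5 ng) in HEPES pH 7.5, EGTA, MnCl2; ULight-p70 S6K Thr389 peptide (50 nM) and ATP (20 μM) then added, 60 min at room temperature. EDTA-stopped, Eu-anti-phospho antibody detection by TR-FRET (665/615 nm); IC50 from variable-slope sigmoidal fit.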

Test [3] concerns the target T2, PI3Kα (wild-type), P110/P85α (Homo sapiens, UniProt P42336).
T2 construct: made in house; host or cells: SF9 insect cells
Nature of the test: PI3 Kinase TR-FRET assay, PI3Kα (wild-type). It counts as biochemical. Summed up:
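Sf9-expressed His-purified P110/P85α (5 ng) preincubated 60 min RT with compound and PIP2 in buffer with 40 mM MgCl2, 5 mM DTT; reaction started with ATP (PIP2 and ATP both 10 μM), 30 min RT. PIP3 detected by TR-FRET displacement, 665/615 nm ratio; IC50 from dose-response curves.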

The test system of test [4] is PC3 cells. The experiment in a line: XTT assay for cell viability, PC3 cells. Format: cell-based, human. The note with it: Homo sapiens, PC-3, cell viability. In short, it runs like this: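 PC3 cells seeded at 1000 cells/well, grown 24 h, then exposed to serial dilutions of compound for 96 h. Viability read by XTT dye at 37° C, absorbance 465 nm. EC50 from sigmoidal dose-response fit.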
(Formazan colour is commonly taken as a measure of viable cells.)

For test [5], the system named is PC3 cells. Nature of the test: In vivo efficacy study (tumor growth suppression), PC3 xenograft. The settings on record: PC3 xenograft mice, after 14 days of dosing at 40 mg/kg bid po. As for the experimental part:
PC3 cells were cultured at 37° C. in a 5% CO2 incubator using Hams F12 K medium. Five million (5×10^6) cells were implanted subcutaneously to the right flank of athymic male mice (Harlan, age: 6-7 weeks, weight: about 20 g). Tumor bearing mice were randomized when the tumor volume reached about 100 mm^3. Ten mice were used per group. Dosage regimen of compounds of formula (I) were scheduled on the basis of the PK, PK-PD and maximum tolerated dose studies. Compounds of formula (I) were formulated using HPCD in PBS, pH 7.4 and dosed orally (dose volume, 10 mL/kg). Solutions of the compounds were prepared immediately before dosing the animals. A vehicle control and a reference compound were included along with test compounds.
The tumor size was measured on alternate days using Vernier® calipers. Assuming tumors to be ellipsoid, the tumor volume was calculated using the formula: V=(D×d^2)/2 […]
Changes in tumor volume (Δ volumes) for each treated (T) and control (C) group were calculated by subtracting the mean tumor volume on the first day of treatment (starting day) from the mean tumor volume on the specified observation day. […]
Percentage tumor growth inhibition was calculated as [100−% T/C]. Percentage body weight change was calculated as [(Body weight on specified observation day−Body weight on starting day)/Body weight on starting day]×100. […]

Where only a bound is given, the exact number is not on record here.

T2 sequence (P42336 whole entry): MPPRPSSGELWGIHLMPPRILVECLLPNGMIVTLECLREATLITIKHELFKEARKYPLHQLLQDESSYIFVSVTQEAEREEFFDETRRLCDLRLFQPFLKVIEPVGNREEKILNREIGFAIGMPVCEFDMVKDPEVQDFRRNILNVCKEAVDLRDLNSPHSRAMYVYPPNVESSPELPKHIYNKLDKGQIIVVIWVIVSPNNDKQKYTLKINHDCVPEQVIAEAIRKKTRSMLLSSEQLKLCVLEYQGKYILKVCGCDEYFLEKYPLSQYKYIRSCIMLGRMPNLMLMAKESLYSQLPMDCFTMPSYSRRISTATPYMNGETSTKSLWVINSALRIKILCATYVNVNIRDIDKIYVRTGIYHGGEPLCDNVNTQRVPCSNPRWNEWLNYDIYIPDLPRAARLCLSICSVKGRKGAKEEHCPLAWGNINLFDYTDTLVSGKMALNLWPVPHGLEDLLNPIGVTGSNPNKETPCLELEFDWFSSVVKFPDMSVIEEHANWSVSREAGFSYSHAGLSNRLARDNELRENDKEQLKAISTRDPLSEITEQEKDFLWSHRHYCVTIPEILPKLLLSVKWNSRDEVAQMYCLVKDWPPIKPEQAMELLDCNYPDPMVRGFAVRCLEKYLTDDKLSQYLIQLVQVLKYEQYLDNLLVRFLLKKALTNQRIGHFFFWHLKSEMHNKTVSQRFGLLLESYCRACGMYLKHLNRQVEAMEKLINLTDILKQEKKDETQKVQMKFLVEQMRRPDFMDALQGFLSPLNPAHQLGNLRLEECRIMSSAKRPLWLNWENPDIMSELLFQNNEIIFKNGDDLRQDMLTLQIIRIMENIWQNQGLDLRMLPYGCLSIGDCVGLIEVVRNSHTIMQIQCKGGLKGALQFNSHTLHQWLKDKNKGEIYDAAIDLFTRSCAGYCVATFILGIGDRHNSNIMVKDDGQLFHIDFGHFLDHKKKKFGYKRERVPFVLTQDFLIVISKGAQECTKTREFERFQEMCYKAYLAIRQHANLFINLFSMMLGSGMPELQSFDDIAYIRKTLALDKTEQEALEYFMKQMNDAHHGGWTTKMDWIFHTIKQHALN
T2 sequence (P27986 whole entry partner): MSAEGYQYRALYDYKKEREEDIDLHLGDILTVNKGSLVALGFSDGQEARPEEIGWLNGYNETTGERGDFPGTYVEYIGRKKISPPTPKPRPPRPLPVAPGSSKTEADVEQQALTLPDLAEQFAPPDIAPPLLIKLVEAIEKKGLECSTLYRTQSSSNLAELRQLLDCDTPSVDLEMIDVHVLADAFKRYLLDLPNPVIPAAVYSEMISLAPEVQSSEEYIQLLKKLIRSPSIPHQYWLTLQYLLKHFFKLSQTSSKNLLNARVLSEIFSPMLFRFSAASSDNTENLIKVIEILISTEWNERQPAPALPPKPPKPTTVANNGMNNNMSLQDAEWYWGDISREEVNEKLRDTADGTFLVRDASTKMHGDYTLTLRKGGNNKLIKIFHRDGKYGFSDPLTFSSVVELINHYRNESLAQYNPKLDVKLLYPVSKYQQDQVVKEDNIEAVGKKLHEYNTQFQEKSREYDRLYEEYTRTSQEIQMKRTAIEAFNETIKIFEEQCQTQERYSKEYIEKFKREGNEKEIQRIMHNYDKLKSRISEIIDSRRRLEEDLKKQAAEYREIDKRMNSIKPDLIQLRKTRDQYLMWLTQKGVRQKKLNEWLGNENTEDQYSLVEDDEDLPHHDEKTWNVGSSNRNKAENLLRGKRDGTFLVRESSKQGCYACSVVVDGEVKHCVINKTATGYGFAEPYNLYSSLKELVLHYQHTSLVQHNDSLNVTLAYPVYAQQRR
Chain of PI3 kinase isoform β (P42338 whole entry, the tested form may be a part, canonical isoform): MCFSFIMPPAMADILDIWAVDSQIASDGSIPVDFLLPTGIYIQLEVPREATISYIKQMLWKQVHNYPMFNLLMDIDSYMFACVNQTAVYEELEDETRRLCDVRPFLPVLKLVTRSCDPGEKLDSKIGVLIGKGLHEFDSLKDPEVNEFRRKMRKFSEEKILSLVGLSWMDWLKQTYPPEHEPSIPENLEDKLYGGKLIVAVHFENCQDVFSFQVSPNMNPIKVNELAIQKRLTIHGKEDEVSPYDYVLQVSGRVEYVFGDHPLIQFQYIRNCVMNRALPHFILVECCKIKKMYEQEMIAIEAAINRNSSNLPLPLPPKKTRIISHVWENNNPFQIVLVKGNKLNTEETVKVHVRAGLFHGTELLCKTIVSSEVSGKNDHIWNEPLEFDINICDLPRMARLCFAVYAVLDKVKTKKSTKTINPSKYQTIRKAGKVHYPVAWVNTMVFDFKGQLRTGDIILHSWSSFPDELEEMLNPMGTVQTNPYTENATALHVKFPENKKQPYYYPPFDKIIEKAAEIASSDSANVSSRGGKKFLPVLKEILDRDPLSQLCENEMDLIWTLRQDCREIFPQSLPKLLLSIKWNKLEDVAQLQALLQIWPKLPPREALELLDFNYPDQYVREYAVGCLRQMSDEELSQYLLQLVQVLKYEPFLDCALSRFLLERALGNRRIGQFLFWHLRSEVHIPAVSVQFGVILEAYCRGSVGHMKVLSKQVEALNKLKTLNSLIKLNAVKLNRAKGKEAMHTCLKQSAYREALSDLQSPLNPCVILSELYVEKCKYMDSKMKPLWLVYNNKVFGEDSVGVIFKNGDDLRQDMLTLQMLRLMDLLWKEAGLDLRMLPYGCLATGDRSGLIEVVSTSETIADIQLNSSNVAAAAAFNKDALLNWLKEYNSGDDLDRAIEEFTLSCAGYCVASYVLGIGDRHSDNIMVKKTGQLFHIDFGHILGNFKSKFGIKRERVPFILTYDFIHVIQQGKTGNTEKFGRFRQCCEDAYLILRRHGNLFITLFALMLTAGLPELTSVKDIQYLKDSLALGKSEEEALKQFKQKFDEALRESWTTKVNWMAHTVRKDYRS
Chain of PI3 kinase isoform β (P27986 whole entry partner, the tested form may be a part, canonical isoform): as the sequence (P27986 whole entry partner) above

In the case of `CN(C)C(=O)c1ccc(NC(=O)Nc2ccc(-c3nc(N4CCOCC4)c4ncc(-c5cccc(S(C)(=O)=O)c5)cc4n3)cc2F)cc1` [Example 104, 4-(3-(2-fluoro-4-(7-(3-(methylsulfonyl)phenyl)-4-morpholino-pyrido[3,2-d]pyrimidin-2-yl)phenyl)ureido)-N,N-dimethyl-benzamide], the IC50 at PI3 kinase isoform β was below 500 nM; in test [1], 201 to 10000 nM; in test [2], below 100 nM; at mTOR kinase it was below 50 nM; in test [3], below 50 nM; with PC3 cells [4], 201 to 10000 nM.

Regarding `CN(C)C(=O)c1ccc(NC(=O)Nc2ccc(-c3nc(N4CCOCC4)c4ncc(-c5cnn(C)c5)cc4n3)cc2F)cc1` [Example 82, 4-(3-(2-fluoro-4-(7-(1-methyl-1H-pyrazol-4-yl)-4-morpholino-pyrido[3,2-d]pyrimidin-2-yl)phenyl)ureido)-N,N-dimethyl-benzamide], the IC50 in test [1] was 201 to 10000 nM; on mTOR kinase, below 50 nM; in test [3] it was below 50 nM; in the test on PC3 cells [4], 201 to 10000 nM. For the same compound, in the test on PC3 cells [5], the “tumor growth inhibition relative to vehicle control group” value is “about 60%”.

As for `CN(C)C(=O)c1ccc(NC(=O)Nc2ccc(-c3nc(N4CCOCC4)c4ccc(-c5ccc(CO)o5)cc4n3)cc2)cc1` [Example 183, 4-(3-(4-(7-(5-(hydroxymethyl)furan-2-yl)-4-morpholino-quinazolin-2-yl)phenyl)ureido)-N,N-dimethyl-benzamide], the IC50 is 201 to 10000 nM in test [1], below 50 nM at mTOR kinase, below 50 nM in test [3] and 201 to 10000 nM in the test with PC3 cells [4]. Further, the “tumor growth inhibition relative to vehicle control group” value with PC3 cells [5] is recorded as “about 60%”.

The values above are taken from patent publication US9115092B2, “Substituted quinazoline and pyrido-pyrimidine derivatives” (Asana Biosciences, LLC, priority 2010, dated 2015).
